Measurements: US20220064696A1, “TARGET ENGAGEMENT ASSAY FOR RAS PROTEINS” (Promega Corporation, priority 2020, published 2022)

Assays:
Type in all cases: binding
KRAS [1] = target: T1, KRAS (Homo sapiens, UniProt P01116); test: NanoBiT BRET target engagement assay in cells, LgBiT and SmBiT fusions, tracer JRW-2111; conditions: HEK293 cells, wild-type KRAS LgBiT/SmBiT fusions, tracer JRW-2111, FIGS. 2-3
T1 construct: expressed in transfected cells; host or cells: HEK293
Procedure: (§1) Luminescence was produced from either NanoLuc (Nluc) tagging of KRAS as the BRET donor, or by NanoBiT tagging of KRAS, wherein BRET donor signal originates from KRAS multimeric species in cells. In 96-well plates, 20,000 HEK293 cells per well were transfected with KRAS-Nluc fusions or KRAS-NanoBiT fusions expressed from pFN31K and pFN32K plasmids. Transfections were performed using 3:1 FuGENE HD:plasmid ratios. […] After incubation, NanoBRET-TE substrate solution was added to a final concentration of 1×, and BRET was measured on a Glomax Discover plate reader.

KRAS^G12C [2] = target: T2, KRAS^G12C (Homo sapiens, UniProt P01116, G12C); test: as above; conditions: HEK293 cells, tracer JRW-2111, FIGS. 2-3
T2 construct: expressed in transfected cells; host or cells: HEK293
Procedure: as §1

KRAS^G12D [3] = target: T3, KRAS^G12D (Homo sapiens, UniProt P01116, G12D); test: as above; conditions: HEK293 cells, tracer JRW-2111, FIGS. 2-3
T3 construct: expressed in transfected cells; host or cells: HEK293
Procedure: as §1

KRAS^G12V [4] = target: T4, KRAS^G12V (Homo sapiens, UniProt P01116, G12V); test: as above; conditions: HEK293 cells, tracer JRW-2111, FIGS. 2-3
T4 construct: expressed in transfected cells; host or cells: HEK293
Procedure: as §1

KRAS [5] = target: T1, KRAS; test: NanoLuc fusion BRET target engagement assay in cells, tracer JRW-2025; conditions: HEK293 cells, wild-type KRAS-NanoLuc fusion, tracer JRW-2025, FIG. 4
Procedure: as §1

KRAS^G12C [6] = target: T2, KRAS^G12C; test: as above; conditions: HEK293 cells, tracer JRW-2025, FIG. 4
Procedure: as §1

KRAS^G12D [7] = target: T3, KRAS^G12D; test: as above; conditions: HEK293 cells, tracer JRW-2025, FIG. 4
Procedure: as §1

KRAS^G12V [8] = target: T4, KRAS^G12V; test: as above; conditions: HEK293 cells, tracer JRW-2025, FIG. 4
Procedure: as §1

KRAS2B(G12C) [9] = target: T5, KRAS2B(G12C) (Homo sapiens, UniProt P01116, G12C); test: Target engagement at KRAS(G12C) homomultimeric complexes, NanoBiT oligomer configuration with SmBiT tag; conditions: LgBiT-KRAS2B(G12C) and SmBiT-KRAS2B(G12C)
T5 construct: expressed in transfected cells; host or cells: HEK293
Procedure: To explore this concept, the NanoBiT™ Technology was used to observe KRAS multimeric (e.g., dimer) complexes by NanoBiT tagging of KRAS, wherein BRET donor signal originates from an oligomeric KRAS. In a tissue culture flask, HEK293 cells per well were transfected with KRAS-NanoBiT fusions, LgBiT-KRAS2B(G12C) and SmBiT-KRAS2B(G12C) expressed from pNB3K or pNB4K plasmids along with pGEM-3Z carrier DNA (1:1:8 ratio by mass). Transfections were performed using 3:1 FuGENE HD:plasmid ratios. 24 hours post transfection, cells were treated with compound JRW-2220 and BI-2852.
After incubation in live cells, NanoBRET-TE substrate solution was added to a final concentration of 1×, and BRET was measured on a Glomax Discover plate reader.
The assay was also performed in digitonin permeabilized cells.

HRAS1 = target: T6, HRAS1 (Homo sapiens, UniProt P01112); test: RAS NanoBiT target engagement assay in cells (LgBiT-RAS and SmBiT-RAS); conditions: HEK293 cells, LgBiT-HRAS1 and SmBiT-HRAS1, tracer JRW-2219 or JRW-2220, FIGS. 18-19
T6 construct: expressed in transfected cells; host or cells: HEK293
Procedure: (§2) To explore this concept, the NanoBiT™ Technology was used to form RAS multimeric (e.g., dimer) complexes by NanoBiT tagging of RAS, wherein BRET donor signal originates from an oligomeric RAS. In a tissue culture flask, HEK293 cells per well were transfected with RAS-NanoBiT fusions, LgBiT-RAS and SmBiT-RAS expressed from pNB3K or pNB4K plasmids along with pGEM-3Z carrier DNA (1:1:8 ratio by mass). Transfections were performed using 3:1 FuGENE HD:plasmid ratios. 24 hours post transfection, cells were treated with compound JRW-2219, JRW-2220, or JRW-2310, and BI-2852.

KRAS2B = target: T7, KRAS2B (Homo sapiens, UniProt P01116); test: as above; conditions: HEK293 cells, tracer JRW-2219, FIGS. 10-11
T7 construct: expressed in transfected cells; host or cells: HEK293
Procedure: as §2

KRAS2B(G12C) [10] = target: T5, KRAS2B(G12C); test: as above; conditions: HEK293 cells, tracer JRW-2219 or JRW-2220, FIGS. 12-13
Procedure: as §2

KRAS2B(G12D) = target: T8, KRAS2B(G12D) (Homo sapiens, UniProt P01116, G12D); test: as above; conditions: HEK293 cells, tracer JRW-2219 or JRW-2220, FIGS. 14-15
T8 construct: expressed in transfected cells; host or cells: HEK293
Procedure: as §2

KRAS2B(G12V) = target: T9, KRAS2B(G12V) (Homo sapiens, UniProt P01116, G12V); test: as above; conditions: HEK293 cells, tracer JRW-2219 or JRW-2220, FIGS. 16-17
T9 construct: expressed in transfected cells; host or cells: HEK293
Procedure: as §2

KRAS2B(G13D) = target: T10, KRAS2B(G13D) (Homo sapiens, UniProt P01116, G13D); test: as above; conditions: HEK293 cells, tracer JRW-2310, FIG. 24
T10 construct: expressed in transfected cells; host or cells: HEK293
Procedure: as §2

KRAS2B(Q61H) = target: T11, KRAS2B(Q61H) (Homo sapiens, UniProt P01116, Q61H); test: as above; conditions: HEK293 cells, tracer JRW-2310, FIG. 22
T11 construct: expressed in transfected cells; host or cells: HEK293
Procedure: as §2

KRAS2B(Q61L) = target: T12, KRAS2B(Q61L) (Homo sapiens, UniProt P01116, Q61L); test: as above; conditions: HEK293 cells, tracer JRW-2310, FIG. 23
T12 construct: expressed in transfected cells; host or cells: HEK293
Procedure: as §2

KRAS2B(Q61R) = target: T13, KRAS2B(Q61R) (Homo sapiens, UniProt P01116, Q61R); test: as above; conditions: HEK293 cells, tracer JRW-2310, FIG. 21
T13 construct: expressed in transfected cells; host or cells: HEK293
Procedure: as §2

## Cn1cnc(Cn2ccc3ccc(CNCc4[nH]c5ccccc5c4[C@H]4NC(=O)c5ccc(O)cc54)cc32)c1 [BI-2852]
KRAS [1]
  target engagement (competition with the KRAS binding agent, BRET): target engagement was observed
KRAS^G12C [2]
  target engagement (competition with the KRAS binding agent, BRET): target engagement was observed
KRAS^G12D [3]
  target engagement (competition with the KRAS binding agent, BRET): target engagement was observed
KRAS^G12V [4]
  target engagement (competition with the KRAS binding agent, BRET): target engagement was observed
KRAS [5]
  competition with the KRAS binding agent (BRET): competition was observed
KRAS^G12C [6]
  competition with the KRAS binding agent (BRET): competition was observed
KRAS^G12D [7]
  competition with the KRAS binding agent (BRET): competition was observed
KRAS^G12V [8]
  competition with the KRAS binding agent (BRET): competition was observed
KRAS2B(G12C) [9]; digitonin permeabilized HEK293 cells, tracer JRW-2220, FIG. 7
  inhibition of the BRET signal induced by the tracer (functional competition): dose-dependent inhibition of the BRET signal
KRAS2B(G12C) [9]; live HEK293 cells, tracer JRW-2220, FIG. 6
  inhibition of the BRET signal induced by the tracer (functional competition): dose-dependent inhibition of the BRET signal
HRAS1
  target engagement (BRET, competition with the RAS binding agent): target engagement was observed
KRAS2B
  target engagement (BRET, competition with the RAS binding agent): target engagement was observed
KRAS2B(G12C) [10]
  target engagement (BRET, competition with the RAS binding agent): target engagement was observed
KRAS2B(G12D)
  target engagement (BRET, competition with the RAS binding agent): target engagement was observed
KRAS2B(G12V)
  target engagement (BRET, competition with the RAS binding agent): target engagement was observed
KRAS2B(G13D)
  target engagement (BRET, competition with the RAS binding agent): target engagement was observed
KRAS2B(Q61H)
  target engagement (BRET, competition with the RAS binding agent): target engagement was observed
KRAS2B(Q61L)
  target engagement (BRET, competition with the RAS binding agent): target engagement was observed
KRAS2B(Q61R)
  target engagement (BRET, competition with the RAS binding agent): target engagement was observed
